Measured values: paper PMC3116082 (Journal of the American Chemical Society, 2011)

How the values were obtained:
Type in all cases: biochemical
[1] = biological target: T1, ThiSG (thiazole synthase) (Bacillus subtilis, UniProt O31618); assay: thiazole reconstitution, strong anion exchange HPLC; conditions: without TenI; ThiF, NifS, ThiO, cysteine, ATP, glycine, DXP
T1 sequence (O31618 1-256): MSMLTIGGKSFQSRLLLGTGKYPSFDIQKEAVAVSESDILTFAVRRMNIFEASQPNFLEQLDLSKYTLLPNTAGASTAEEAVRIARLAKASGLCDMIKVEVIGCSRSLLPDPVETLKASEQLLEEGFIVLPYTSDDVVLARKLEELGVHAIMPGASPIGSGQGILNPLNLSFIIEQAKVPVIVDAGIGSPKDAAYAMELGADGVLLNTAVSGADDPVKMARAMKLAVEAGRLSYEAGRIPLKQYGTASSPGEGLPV
T1 sequence (O31617 1-66 partner): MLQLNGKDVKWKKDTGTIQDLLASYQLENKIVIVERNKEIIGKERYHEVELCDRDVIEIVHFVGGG

[2] = biological target: thiamin phosphate synthase (ThiE) (Bacillus subtilis, UniProt P39594); assay: thiochrome assay, HPLC with fluorescence detection; conditions: co-substrate HMP-PP
Chain of thiamin phosphate synthase (ThiE) (P39594 whole entry): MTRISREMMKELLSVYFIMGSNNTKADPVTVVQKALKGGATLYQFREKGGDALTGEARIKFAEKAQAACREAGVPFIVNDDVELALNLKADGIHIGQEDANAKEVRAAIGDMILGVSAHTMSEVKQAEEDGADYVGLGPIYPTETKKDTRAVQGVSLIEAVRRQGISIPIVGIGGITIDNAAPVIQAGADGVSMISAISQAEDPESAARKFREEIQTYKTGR

ThiO = biological target: T2, ThiO (Bacillus subtilis, UniProt O31616); assay: H2O2 formation, HRP-coupled absorbance at […] nm; conditions: 0.1-10 mM glycine, without TenI
T2 sequence (O31616 1-369): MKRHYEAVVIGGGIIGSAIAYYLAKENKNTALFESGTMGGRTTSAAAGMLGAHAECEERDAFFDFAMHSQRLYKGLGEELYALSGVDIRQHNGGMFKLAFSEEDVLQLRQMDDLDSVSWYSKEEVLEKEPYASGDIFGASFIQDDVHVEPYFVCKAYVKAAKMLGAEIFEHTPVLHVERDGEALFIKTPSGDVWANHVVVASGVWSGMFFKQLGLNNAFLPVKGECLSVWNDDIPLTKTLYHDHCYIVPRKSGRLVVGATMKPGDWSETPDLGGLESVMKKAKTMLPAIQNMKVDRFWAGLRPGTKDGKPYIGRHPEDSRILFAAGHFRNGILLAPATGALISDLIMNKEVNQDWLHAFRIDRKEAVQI

Compound	thiochrome assay, HPLC with fluorescence detection [2]	other results
CC1=N[C@@H](C(=O)O)S/C1=C\COP(=O)(O)O [compound 14, (R,Z)-2-(2-carboxy-4-methylthiazol-5(2H)-ylidene)ethyl phosphate]		thiazole reconstitution, strong anion exchange HPLC [1]: In the absence of TenI, cThz*-P was the only thiazole product formed
Cc1ncsc1CCOP(=O)(O)O [compound 15, 2-(4-methylthiazol-5-yl)ethyl phosphate]	cThz-P and Thz-P are significantly better substrates than cThz*-P	
Cc1nc(C(=O)O)sc1CCOP(=O)(O)O [compound 16, 2-(2-carboxy-4-methylthiazol-5-yl)ethyl phosphate]	cThz-P and Thz-P are significantly better substrates than cThz*-P	
NCC(=O)O [compound 19, glycine]		H2O2 formation, HRP-coupled absorbance at 500 nm (ThiO): the rate of hydrogen peroxide production with increasing concentrations of glycine was unaffected by TenI
